Consider one compound from patent US20240428951A1, “METHODS AND SYSTEMS FOR PERSONALIZED IN-SILICO HEMATOPOIESIS AND DISEASE/LEUKEMIA SIMULATION FOR TREATMENT SELECTION AND OPTIMIZATION” (GEORGIA TECH RESEARCH CORPORATION, priority 2021, published 2024).

One test deals with leukemic blasts. The test can be described thus: Patient leukemia response to treatment (percentage of leukemic blasts in BM, clinical assessments compared with simulation). It is filed as in vivo, human. As to conditions: one patient. The text has this:
FIGS. 9A and 9B show examples of visual representations of retrospective comparisons of dynamic prediction of the overall percentage of abnormal cells/leukemic blasts (lines) determined using the method according to embodiments and patient clinical assessments (dots).
FIGS. 9A and 9B show examples of visualizations of dynamic prediction of the overall percentage of leukemic blasts. By showing the percentage of overall leukemic blasts (addition of all subclones) in graphs, the leukemic burden in BM can be visualized.

Test [1] is described as follows: Patient peripheral blood / neutrophil recovery during treatment. It is filed as in vivo, human. As to conditions: one patient, 4 cycles of low-dose treatment (FIG. 10A, 11A). An excerpt:
FIGS. 10A and 10B show examples of visual representations of dynamic prediction of peripheral blood recovery determined using the method according to embodiments.
FIGS. 11A and 11B show examples of visual representations of retrospective comparisons of dynamic prediction of absolute neutrophils count (lines) determined using the method according to embodiments and patient clinical assessment of daily neutrophils count during treatment (dots).
The patient initially presented with granulocytic dysplasia that delayed neutrophil recovery.

As to `Nc1ccn([C@@H]2O[C@H](CO)[C@@H](O)[C@@H]2O)c(=O)n1` [Ara-C, Cytosine Arabinoside], the treatment outcome was “complete remission” in the test on leukemic blasts (2 cycles of low-dose treatment (FIG. 9A)) and “complete remission” with leukemic blasts (4 cycles of low-dose treatment (FIG. 10A, 11A)). The compound also yielded a leukemic blasts in the test with leukemic blasts (2 cycles of low-dose treatment (FIG. 9A), bone marrow) of under 5%. Also, the hematological recovery entry in test [1] is “complete hematological recovery”.
